“Also recorded” adds a separate entry of the source.
What was measured:
[1] = tested on: NF-κB pathway; experiment: p50 nuclear translocation / NF-κB activation in DCs (ELISA of cytosolic and nuclear fractions); type: cell-based, human; conditions: DCs exposed to MMP-2 (5 μm/ml) or zymosan (10 μm/ml); p50 by ELISA
Description: (§1) A) DCs were exposed to MMP-2 […] or zymosan […], a known activator of NF-κB that acts via TLR2, for the indicated time. Cytosolic and nuclear fractions were isolated and p50 contents were measured by ELISA. […] C) OX40L over-expression on DCs induced by MMP-2 is inhibited by an inhibitor of NEMO, the NEMO binding domain (NBD) peptide, but not by the corresponding negative control, a NBD mutant.
(§2) PBMCs were purified from healthy-(HD) or cord blood- (CB) donors and plated at 40×10^6 cells/10 mL/dish in complete IMDM with 5% PHS. Cells were allowed to adhere for 2 h at 37° C. Non-adherent cells were removed. The monocyte-enriched fraction was supplemented with 100 UI/mL rhGMCSF and 300 UI/mL rhIL-4 (R&D Systems) on days 0, 2 and 4. Immature DCs were harvested on day 5 and matured using poly(I:C) at 5 μg/mL/10^6 DCs (Amersham). Secretion of IL-12p70, TNFα, IL-1β, IL-6, IL-8 and IL-10 was assessed on both immature and mature DCs using the Human Inflammatory Cytokine Cytometric Bead Array (BD Pharmingen).
Activation of T cell clones (10,000 cells/100 μL/well), polyclonal T cell populations (100,000 cells/100 μL/well), and DCs (50,000 cells/100 μL/well) can be determined by ELISA. IFNγ (BioSource), TNFα (BioSource), IL-4 (BioSource), IFNβ (VeriKine; PBL interferon source) and MCP-3 (DuoSet; R&D Systems) contents in supernatants were measured according to the manufacturer's instructions. p50 was measured in cytosolic and nuclear fractions (fractions separated using the nuclear separation kit from Active motif) by ELISA (Active motif).

[2] = tested on: OX40L; experiment: OX40L expression on DCs (staining); type: cell-based, human; conditions: DCs exposed for 2 days, stained for OX40L
Description: as §1
(§3) A) DCs were exposed to various TLR agonists for 2 days before cells were stained for OX40L. […] B) TLR2-transfected and engineered HEK cells were incubated with MMP-2 (5 mg/ml) or various controls. All conditions were also tested in the presence of a blocking antibody for TLR2. TNFα was used to activate NF-κB in a TLR-independent manner. Twenty hours later, NF-κB activation was measured.
Antibody to OX40L (11C3.1) was from Biolegend. Blocking antibodies to TLR-2 and TLR-6 were from Invivogen. Antibodies to GATA-3, IL-4 (8D4-8), IL-5 (JES1-39D10), IL-13 (JES10-5A2), TNFα (MAb11), IFNγ (25723.11), perforin (δG9), GranzymeB (GB11), CD40 (5C3), CD80 (L307.4), CD83 (HB15e), CD86 (IT2.2), HLA-DR (TU36), fluorescein isothiocyanate-conjugated antibodies to CD45RA (HI100) and CD45RO (UCHL1), and antibody to CD4 (RPA-T4) were purchased from BD Biosciences Pharmingen. Alexa fluor 488-conjugated antibody to IL-17 (eBio64DEC17), phycoerythrine-conjugated antibody to T-bet (4B10).
as §2

[3] = biological target: T1, human TLR-2 (Homo sapiens, UniProt O60603); experiment: HEK-Blue-hTLR2 NF-κB SEAP reporter assay; type: cell-based; conditions: MMP-2 5 mg/ml; twenty hours; with/without TLR2 blocking antibody
T1 construct: host or cells: HEK293 (HEK-Blue-hTLR2 cells)
Description: as §3
TLR2-transfected and engineered HEK cells were incubated with MMP-2 (5 mg/ml), TLR2 agonists, recombinant PEX and 3 pools of overlapping 20-mers covering MMP-2. OLP1: mix of 22 overlapping peptides covering MMP-2 from amino-acid 1 to 220; OLP2: mix of 22 overlapping peptides covering MMP-2 from amino-acid 210 to 440; OLP3: mix of 22 overlapping peptides covering MMP-2 from amino-acid 450 to 660. Twenty hours later, NF-κB activation was measured. Neither PEX nor the peptides triggered NF-κB signaling.
TLR-2-transfected (stably) HEK-Blue™ Cells represent a very efficient high throughput reagent for screening due to an easy read-out. […] Levels of SEAP can be readily determined with QUANTI-Blue™, a detection medium that turns purple/blue in the presence of alkaline phosphatase. […] Inhibition of NF-κB activation by any agents/molecules can be assessed and confirmed in DCs (which endogenously express TLR2 or are engineered to express exogenous TLR2) in order to corroborate the initial screening results in a native or more natural context. […] TLR-2-expressing cells, such as those described herein, can be incubated with agents/molecules and molecular interactions assessed using methods, such as, e.g., co-immunoprecipitation of MMP-2 and TLR-2 from the cell lysates. […] Additional methods can be used to evaluate if MMP-2 and TLR-2 interact directly, including other affinity-based methods (e.g., affinity chromatography or panning), competitive inhibition assays, and various visualization techniques, such as fluorescence resonance energy transfer (FRET) and others which are known in the art. […]

T1 sequence (O60603 21-784): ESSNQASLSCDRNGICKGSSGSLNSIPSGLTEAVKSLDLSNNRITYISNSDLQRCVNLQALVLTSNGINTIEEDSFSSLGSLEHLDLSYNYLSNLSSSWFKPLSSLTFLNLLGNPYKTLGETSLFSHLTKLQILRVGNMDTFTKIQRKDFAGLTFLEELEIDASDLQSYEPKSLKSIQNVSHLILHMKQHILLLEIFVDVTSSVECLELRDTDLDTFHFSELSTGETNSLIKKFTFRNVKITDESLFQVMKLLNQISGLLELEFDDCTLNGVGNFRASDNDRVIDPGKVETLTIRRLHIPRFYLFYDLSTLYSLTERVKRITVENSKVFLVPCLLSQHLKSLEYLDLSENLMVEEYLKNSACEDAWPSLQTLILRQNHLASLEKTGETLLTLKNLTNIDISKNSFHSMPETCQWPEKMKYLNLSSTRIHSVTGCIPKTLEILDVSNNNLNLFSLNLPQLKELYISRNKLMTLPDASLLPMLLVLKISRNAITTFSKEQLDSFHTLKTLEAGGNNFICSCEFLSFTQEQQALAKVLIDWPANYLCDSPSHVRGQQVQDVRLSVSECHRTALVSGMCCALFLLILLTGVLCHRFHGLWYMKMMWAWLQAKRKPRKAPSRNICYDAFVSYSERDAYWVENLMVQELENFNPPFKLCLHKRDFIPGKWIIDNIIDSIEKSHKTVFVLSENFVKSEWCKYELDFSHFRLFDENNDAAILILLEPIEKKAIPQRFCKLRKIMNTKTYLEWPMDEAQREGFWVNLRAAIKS

## zymosan [reference compound]
[1]
  p50 translocation in the nucleus: induce p50 translocation in the nucleus after 30 min
[2]
  OX40L expression on DCs: induce OX40L on DCs
[3]
  NF-κB activation in TLR2-transfected HEK cells: activate NF-κB in a TLR2-dependent manner

B1: PEX: last third of MMP-2, amino acids 445-635 of SEQ ID NO: 1; recombinant (protein, listed as Homo sapiens)
chain: YGASPDIDLGTGPTPTLGPVTPEICKQDIVFDGIAQIRGEIFFFKDRFIWRTVTPRDKPMGPLLVATFWPELPEKIDAVYEAPQEEKAVFFAGNEYWIYSASTLERGYPKPLTSLGLPPDVQRVDAAFNWSKNKKTYIFAGDKFWRYNEVKKKMDPGFPKLIADAWNAIPDNLDAVVDLQGGGHSYFFKGA
[3]
  NF-κB activation in TLR2-transfected HEK cells: did not trigger TLR-2 activation; also recorded: do not trigger TLR2

Reference: US9539315B2, “Methods, agents and peptides for inhibiting matrix metalloproteinase-2 signaling” (New York University, priority 2011, dated 2017)
